Measurements reported in publication PMC8619001, “Discovery of New Ginsenol-Like Compounds with High Antiviral Activity” (Molecules, 2021).

Experiments:
[1] = tested on: HSV-1; parameters: method as in PMID 20008902; conditions: HSV-1, Figure 1; cited from earlier work
[2] = in vitro; conditions: dog
[3] = tested on: A/California/7/2009 (H1N1) pdm09; assay: microbe, parasite or virus in culture; assay type: cell-based, influenza virus A/California/07/09 (H1N1)pdm09; conditions: Influenza A virus, H1N1, MDCK, 72 h, read-out: IC50 H1N1
[4] = In vivo toxicity study (LD50)
[5] = tested on: HA of A/Vladivostok/2/2009 (H1N1); assay type: biochemical, influenza virus A/Vladivostok/2/2009 (H1N1); conditions: pH 5
[6] = tested on: A/Mallard/Pennsylvania/1984 (H5N2); assay: microbe, parasite or virus in culture; assay type: cell-based, influenza virus A/mallard/Pennsylvania/10218/84 (H5N2); conditions: Influenza A virus, H1N1 / H5N2, MDCK, in Anas platyrhynchos, 72 h, read-out: IC50 H1N1
[7] = tested on: HA of A/California/7/2009 (H1N1); assay type: biochemical, influenza virus A/California/07/09 (H1N1)pdm09; conditions: pH 5
[8] = tested on: influenza virus A/Puerto Rico/8/1934 (H1N1); assay: organism not typed; assay type: cell-based, influenza virus A/Puerto Rico/8/34 (H1N1); conditions: MDCK, 24 h, read-out: IC50 (virus yield reduction)
[9] = tested on: HA of influenza viruses A of H3, H5, and H7 subtypes and influenza virus B; assay type: biochemical; conditions: pH 5
[10] = target: HA of A/Puerto Rico/8/34 (Influenza A virus, UniProt P03452); assay type: biochemical, influenza virus A/Puerto Rico/8/34 (H1N1); conditions: pH 5
[11] = tested on: A/Anhui/1/2013 (H7N9); assay: microbe, parasite or virus in culture; assay type: cell-based, influenza virus A/Anhui/1/2013 (H7N9); conditions: Influenza A virus, H1N1 / H7N9, MDCK, 72 h, read-out: IC50 H1N1
[12] = tested on: B/Florida/4/2006 (Yamagata-like); assay: microbe, parasite or virus in culture; assay type: cell-based, influenza virus B/Florida/4/2006 (Yamagata-like); conditions: Influenza B virus, MDCK, 72 h, read-out: IC50 H1N1
[13] = target: viral hemagglutinin (HA) of influenza virus A/Puerto Rico/8/34 (H1N1) (Influenza A virus, UniProt P03452); assay type: biochemical
[14] = tested on: A/Aichi/2/1968 (H3N2); assay: microbe, parasite or virus in culture; assay type: cell-based, influenza virus A/Aichi/2/68 (H3N2); conditions: Influenza A virus, H1N1 / H3N2, MDCK, 72 h, read-out: IC50 H1N1
[15] = tested on: influenza virus A/Puerto Rico/8/34 (H1N1); assay type: cell-based
[16] = tested on: influenza virus A/Puerto Rico/8/34 (H1N1); assay: organism not typed; assay type: cell-based; conditions: for IC50: MDCK, 72 h, read-out: IC50 H1N1
[17] = tested on: influenza virus A/Leningrad/134/17/1957 (H2N2); conditions: cited from earlier work

Chain of viral hemagglutinin (HA) of influenza virus A/Puerto Rico/8/34 (H1N1) (P03452 18-343 limits assumed): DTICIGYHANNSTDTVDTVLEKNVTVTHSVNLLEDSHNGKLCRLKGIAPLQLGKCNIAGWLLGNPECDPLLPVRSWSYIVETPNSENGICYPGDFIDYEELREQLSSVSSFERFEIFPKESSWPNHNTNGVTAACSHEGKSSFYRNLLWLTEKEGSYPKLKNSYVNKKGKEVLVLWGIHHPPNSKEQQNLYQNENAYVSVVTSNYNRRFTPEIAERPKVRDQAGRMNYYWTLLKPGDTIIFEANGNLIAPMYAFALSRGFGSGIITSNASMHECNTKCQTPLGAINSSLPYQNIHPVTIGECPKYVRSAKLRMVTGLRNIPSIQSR
Chain of viral hemagglutinin (HA) of influenza virus A/Puerto Rico/8/34 (H1N1) (P03452 344-565 limits assumed): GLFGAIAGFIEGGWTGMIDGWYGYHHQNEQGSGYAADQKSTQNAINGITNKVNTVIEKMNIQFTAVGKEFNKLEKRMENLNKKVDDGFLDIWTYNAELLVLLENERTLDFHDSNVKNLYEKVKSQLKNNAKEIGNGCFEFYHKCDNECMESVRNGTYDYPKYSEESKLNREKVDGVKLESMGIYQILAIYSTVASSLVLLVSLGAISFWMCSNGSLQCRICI
Chain of HA of A/Puerto Rico/8/34 (P03452 18-343 limits assumed): as the sequence (P03452 18-343 limits assumed) above
Chain of HA of A/Puerto Rico/8/34 (P03452 344-565 limits assumed): as the sequence (P03452 344-565 limits assumed) above

| SMILES | CC50 [2] [µM] | IC50 [16] [µM] | SI [16] | also measured |
| --- | --- | --- | --- | --- |
| C=C1CC/C=C(\C)CC[C@@H]2[C@@H]1CC2(C)C [Caryophyllene] |  |  |  | SI [1]: 140 |
| CC(=O)NC12CC(C)(C)C3CCC1(C)CCCC32C [Compound 1a, (1S,3aR,4R,7aS)-N-(2,2,4,7a-tetramethyloctahydro-1,4-etanoinden-3a-yl)-acetamide] | > 1140 | 0.152 ± 0.03 |  | IC50 [3]: 10.7 ± 1.3 µM; LD50 [4]: > 5000 mg/kg; Inhibition of fusogenic activity of viral HA [5]: highest activity; IC50 [6]: 133 ± 15.6 µM; Inhibition of fusogenic activity of viral HA [7]: less sensitive; IC50 [8]: 0.15 µM; Inhibition of fusogenic activity of viral HA [9]: did not decrease their fusogenic activity, or this effect was observed only at the highest concentrations; Inhibition of fusogenic activity of viral HA [10]: highest activity; IC50 [11]: 126 ± 11.8 µM; IC50 [12]: 1130 ± 141 µM; Effect on the hemagglutinating titre of the virus [13]: did not change the hemagglutinating titre of the virus; IC50 [14]: 789 ± 82 µM; Period of presence in the culture medium giving the most pronounced effect [15]: 0 to 2 h post-infection (hpi) |
| CCC(=O)NC12CC(C)(C)C3CCC1(C)CCCC32C (stereo not drawn) [Compound 1b, N-(2,2,4,7a-tetramethyloctahydro-3aH-1,4-ethanoinden-3a-yl)propionamide] | 128 ± 9.4 | 0.144 ± 0.019 | 890 | melting point: 103 °C |
| CC(C)C(=O)NC12CC(C)(C)C3CCC1(C)CCCC32C (stereo not drawn) [Compound 1c, N-(2,2,4,7a-tetramethyloctahydro-3aH-1,4-ethanoinden-3a-yl)isobutyramide] | > 1030 | 0.21 ± 0.029 | 5000 | melting point: 103 °C |
| CC1(C)CC2(NC(=O)c3ccccc3)C3(C)CCCC2(C)C1CC3 (stereo not drawn) [Compound 1d, N-(2,2,4,7a-tetramethyloctahydro-3aH-1,4-ethanoinden-3a-yl)benzamide] | 141 ± 11.5 | 9.2 ± 1.1 | 15 |  |
| CC1(C)CC2(N)C3(C)CCCC2(C)C1CC3.Cl (stereo not drawn) [Compound 2, 2,2,4,7a-tetramethyloctahydro-3aH-1,4-ethanoinden-3a-amine hydrochloride] | 15.4 ± 1.2 | 0.45 ± 0.06 | 34 | melting point: 257.8 to 261.3 °C |
| CC(=S)NC12CC(C)(C)C3CCC1(C)CCCC32C (stereo not drawn) [Compound 3, N-(2,2,4,7a-tetramethyloctahydro-3aH-1,4-ethanoinden-3a-yl)ethanethioamide] | > 1130 | 1.13 ± 0.19 | 1000 |  |
| CC(C)=CCC/C(C)=C/CC/C(C)=C/CO [Farnesol] |  |  |  | SI [1]: 11 |
| CCOC(=O)C1=C[C@@H](OC(CC)CC)[C@H](NC(C)=O)[C@@H](N)C1 [Oseltamivir, reference compound] | > 200 | 0.31 ± 0.04 |  |  |
| C[C@H]1CC[C@@]2(O)C(C)(C)[C@@H]3CC[C@@]2(C)[C@H]1C3 [Patchouli alcohol] |  |  |  | SI [17]: 4.9 |
| NC(=O)c1ncn([C@@H]2O[C@H](CO)[C@@H](O)[C@H]2O)n1 [Ribavirin, reference compound] |  | 24.6 ± 3.7 | >81 | CC50 at 72 h [2]: > 2000 µM |
| CC(N)C12CC3CC(CC(C3)C1)C2 (stereo not drawn) [Rimantadine, reference compound] | 335 ± 27 | 67 ± 4.9 | 5 |  |
| C=C1CCC2OC2(C)CCC2C1CC2(C)C (stereo not drawn) [beta-Caryophyllene oxide] |  |  |  | SI [1]: 25 |
